Values after ≈ are worked out from the molar mass of the structure shown.
How the values were obtained:
N2a = experiment: Neuroprotective activity against paraquat induced mouse Neuro2a cells assessed as reduction in cell viability at 1 uM pretreated for 1 hr followed by paraquat addition measured after 24 hrs by MTT method relative to control; type: functional; settings: time 25 hrs
[1] = Antagonist activity at alpha-adrenergic receptor in rat aortic strips assessed as receptor mediated adrenolytic activity; settings: read-out: pA2 (converted)
[2] = Antagonist activity at serotonin receptor in rat aortic strips assessed as receptor mediated anti-serotoninergic activity; settings: read-out: pA2 (converted)
SAOS-2 = experiment: Cytotoxicity against human SAOS-2 cells assessed as cell growth inhibition incubated for 48 hrs by microplate reader based analysis; type: functional; settings: SAOS-2, 48 h
MG-63 = experiment: Cytotoxicity against human MG-63 cells assessed as cell growth inhibition incubated for 48 hrs by microplate reader based analysis; type: functional; settings: MG-63, 48 h
U2OS = experiment: Cytotoxicity against human U2OS cells assessed as cell growth inhibition incubated for 48 hrs by microplate reader based analysis; type: functional
[3] = Cytotoxicity against human SOSP-9607 cells assessed as cell growth inhibition incubated for 48 hrs by microplate reader based analysis; type: functional; settings: SOSP-9607, 48 h
[4] = target: Prostaglandin G/H synthase 1 (Homo sapiens) (UniProt P23219); experiment: Inhibition of COX-1 (unknown origin) using arachidonic acid as substrate at 100 uM preincubated for 5 mins followed by substrate addition measured after 15 mins by absorbance based analysis relative to control; settings: time 20.0 min
[5] = target: Prostaglandin G/H synthase 2 (Homo sapiens) (UniProt P35354); experiment: Inhibition of COX-2 (unknown origin) using arachidonic acid as substrate at 100 uM preincubated for 5 mins followed by substrate addition measured after 15 mins by absorbance based analysis relative to control; settings: time 20.0 min
[6] = target: Polyunsaturated fatty acid 5-lipoxygenase (Homo sapiens) (UniProt P09917); experiment: Inhibition of 5-LOX (unknown origin) using arachidonic acid as substrate at 100 uM preincubated for 5 mins followed by substrate addition measured after 15 mins by absorbance based analysis relative to control; settings: time 20.0 min
[7] = Antioxidant activity assessed as DPPH radical scavenging activity; type: functional
[8] = Inhibition of urease (unknown origin); set-up: species or system Homo sapiens
[9] = target: Xanthine dehydrogenase/oxidase (Homo sapiens, UniProt P47989); experiment: Inhibition of xanthine oxidase (unknown origin)
KB = experiment: Cytotoxicity against human KB cells assessed as cell growth inhibition; type: functional, cell-based
[10] = Cytotoxicity against vincristine resistant human VJ300 cells assessed as cell growth inhibition; type: functional, cell-based; settings: VJ-300
B16 = experiment: Cytotoxicity against mouse B16 cells assessed as cell growth inhibition measured after 72 hrs by MTT assay; type: functional, cell-based; settings: B16, 72 h
[11] = Cytotoxicity against multidrug resistant human VJ300 cells expressing P-gp assessed as cell growth inhibition measured after 72 hrs by MTT assay; type: functional, cell-based; settings: VJ-300, 72 h
L1210 = experiment: Cytotoxicity against mouse L1210 cells assessed as cell growth inhibition; type: functional, cell-based
[12] = Toxicity in iv dosed rat assessed as lethal dose; settings: in vivo
Plasmodium falciparum [13] = experiment: Antimalarial activity against Plasmodium falciparum K1 infected in human RBC assessed as parasite growth inhibition measured after 48 hrs by optical microscopy; type: functional, organism-based; settings: K1, Erythrocyte
NIH3T3 = experiment: Cytotoxicity against mouse NIH3T3 cells assessed as cell growth inhibition incubated for 48 hrs by alamar blue dye-based fluorometric analysis; type: functional; settings: NIH3T3, 48 h
Cholinesterase = Cholinesterase (Homo sapiens, UniProt P06276); experiment: Inhibition of human BChE
[14] = target: Replicase polyprotein 1ab (Severe acute respiratory syndrome coronavirus 2) (UniProt P0DTD1); experiment: Binding affinity to SARS-CoV-2 3C-like protease assessed as change in gibbs free energy
Plasmodium falciparum [15] = experiment: Antiplasmodial activity against chloroquine sensitive Plasmodium falciparum W2 assessed as cell growth inhibition; type: functional, organism-based
Plasmodium falciparum [16] = experiment: Antiplasmodial activity against chloroquine sensitive Plasmodium falciparum D6 assessed as cell growth inhibition; type: functional, organism-based
[17] = Toxicity in Artemia salina assessed as mortality at 10 ug/ml measured after 24 hrs by microscopic analysis; settings: at 10 µg/mL, read-out: Activity
Plasmodium falciparum [18] = experiment: Antiplasmodial activity against Plasmodium falciparum 3D7 infected in human erythrocytes assessed as cell growth inhibition incubated for 72 hrs by parasite lactate dehydrogenase assay; type: functional, organism-based; settings: 3D7, 72 h

Sequence of Cholinesterase (P06276 whole entry): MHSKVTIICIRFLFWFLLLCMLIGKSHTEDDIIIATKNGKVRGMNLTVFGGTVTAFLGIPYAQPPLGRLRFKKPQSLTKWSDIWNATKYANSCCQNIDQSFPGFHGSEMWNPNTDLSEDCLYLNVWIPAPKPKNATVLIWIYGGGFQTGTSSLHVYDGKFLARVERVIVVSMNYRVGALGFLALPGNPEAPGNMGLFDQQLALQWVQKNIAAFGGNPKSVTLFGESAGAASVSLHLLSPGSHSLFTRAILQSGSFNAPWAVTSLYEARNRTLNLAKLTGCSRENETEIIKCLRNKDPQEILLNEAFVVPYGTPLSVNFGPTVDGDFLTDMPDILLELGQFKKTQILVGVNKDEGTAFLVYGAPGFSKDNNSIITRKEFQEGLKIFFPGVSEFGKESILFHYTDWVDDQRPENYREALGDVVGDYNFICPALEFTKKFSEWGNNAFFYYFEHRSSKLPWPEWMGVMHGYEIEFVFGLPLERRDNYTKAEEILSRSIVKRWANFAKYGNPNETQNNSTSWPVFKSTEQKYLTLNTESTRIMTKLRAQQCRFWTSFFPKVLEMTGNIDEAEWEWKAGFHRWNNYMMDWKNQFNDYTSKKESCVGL
Sequence of Polyunsaturated fatty acid 5-lipoxygenase (Homo sapiens) (P09917 whole entry): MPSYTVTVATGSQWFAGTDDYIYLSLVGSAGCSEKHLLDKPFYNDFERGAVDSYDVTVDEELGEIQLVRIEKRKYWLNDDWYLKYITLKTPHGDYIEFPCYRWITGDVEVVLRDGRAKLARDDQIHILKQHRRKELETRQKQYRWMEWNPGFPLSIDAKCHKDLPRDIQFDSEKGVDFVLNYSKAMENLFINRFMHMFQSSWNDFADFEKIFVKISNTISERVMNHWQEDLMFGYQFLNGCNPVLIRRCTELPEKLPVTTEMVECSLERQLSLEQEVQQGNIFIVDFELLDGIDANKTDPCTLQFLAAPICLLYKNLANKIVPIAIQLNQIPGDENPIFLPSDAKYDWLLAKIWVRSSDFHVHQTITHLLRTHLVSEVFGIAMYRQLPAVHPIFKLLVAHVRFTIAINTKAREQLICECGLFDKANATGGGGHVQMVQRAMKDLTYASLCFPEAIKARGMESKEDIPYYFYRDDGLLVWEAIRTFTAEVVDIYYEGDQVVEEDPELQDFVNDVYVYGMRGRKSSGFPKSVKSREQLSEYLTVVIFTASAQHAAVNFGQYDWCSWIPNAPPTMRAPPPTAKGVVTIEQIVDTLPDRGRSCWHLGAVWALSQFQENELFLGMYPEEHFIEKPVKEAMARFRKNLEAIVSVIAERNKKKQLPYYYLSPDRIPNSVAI
Sequence of Prostaglandin G/H synthase 2 (Homo sapiens) (P35354 whole entry): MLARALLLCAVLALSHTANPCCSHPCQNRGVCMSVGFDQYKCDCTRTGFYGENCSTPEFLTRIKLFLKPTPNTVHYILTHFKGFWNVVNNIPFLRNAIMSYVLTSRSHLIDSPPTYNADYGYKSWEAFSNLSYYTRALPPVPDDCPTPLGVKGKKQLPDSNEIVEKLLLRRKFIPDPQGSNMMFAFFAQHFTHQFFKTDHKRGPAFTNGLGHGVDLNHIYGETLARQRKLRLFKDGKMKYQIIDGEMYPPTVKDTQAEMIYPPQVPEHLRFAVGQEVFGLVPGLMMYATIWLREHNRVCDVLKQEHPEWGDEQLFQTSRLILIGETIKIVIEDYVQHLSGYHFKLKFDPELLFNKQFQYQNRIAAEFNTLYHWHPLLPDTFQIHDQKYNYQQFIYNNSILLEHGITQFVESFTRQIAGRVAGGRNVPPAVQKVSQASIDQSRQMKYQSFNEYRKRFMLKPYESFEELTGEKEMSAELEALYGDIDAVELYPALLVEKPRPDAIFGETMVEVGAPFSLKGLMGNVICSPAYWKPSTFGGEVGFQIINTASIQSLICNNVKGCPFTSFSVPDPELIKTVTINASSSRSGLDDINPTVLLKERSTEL
Sequence of Xanthine dehydrogenase/oxidase (P47989 whole entry): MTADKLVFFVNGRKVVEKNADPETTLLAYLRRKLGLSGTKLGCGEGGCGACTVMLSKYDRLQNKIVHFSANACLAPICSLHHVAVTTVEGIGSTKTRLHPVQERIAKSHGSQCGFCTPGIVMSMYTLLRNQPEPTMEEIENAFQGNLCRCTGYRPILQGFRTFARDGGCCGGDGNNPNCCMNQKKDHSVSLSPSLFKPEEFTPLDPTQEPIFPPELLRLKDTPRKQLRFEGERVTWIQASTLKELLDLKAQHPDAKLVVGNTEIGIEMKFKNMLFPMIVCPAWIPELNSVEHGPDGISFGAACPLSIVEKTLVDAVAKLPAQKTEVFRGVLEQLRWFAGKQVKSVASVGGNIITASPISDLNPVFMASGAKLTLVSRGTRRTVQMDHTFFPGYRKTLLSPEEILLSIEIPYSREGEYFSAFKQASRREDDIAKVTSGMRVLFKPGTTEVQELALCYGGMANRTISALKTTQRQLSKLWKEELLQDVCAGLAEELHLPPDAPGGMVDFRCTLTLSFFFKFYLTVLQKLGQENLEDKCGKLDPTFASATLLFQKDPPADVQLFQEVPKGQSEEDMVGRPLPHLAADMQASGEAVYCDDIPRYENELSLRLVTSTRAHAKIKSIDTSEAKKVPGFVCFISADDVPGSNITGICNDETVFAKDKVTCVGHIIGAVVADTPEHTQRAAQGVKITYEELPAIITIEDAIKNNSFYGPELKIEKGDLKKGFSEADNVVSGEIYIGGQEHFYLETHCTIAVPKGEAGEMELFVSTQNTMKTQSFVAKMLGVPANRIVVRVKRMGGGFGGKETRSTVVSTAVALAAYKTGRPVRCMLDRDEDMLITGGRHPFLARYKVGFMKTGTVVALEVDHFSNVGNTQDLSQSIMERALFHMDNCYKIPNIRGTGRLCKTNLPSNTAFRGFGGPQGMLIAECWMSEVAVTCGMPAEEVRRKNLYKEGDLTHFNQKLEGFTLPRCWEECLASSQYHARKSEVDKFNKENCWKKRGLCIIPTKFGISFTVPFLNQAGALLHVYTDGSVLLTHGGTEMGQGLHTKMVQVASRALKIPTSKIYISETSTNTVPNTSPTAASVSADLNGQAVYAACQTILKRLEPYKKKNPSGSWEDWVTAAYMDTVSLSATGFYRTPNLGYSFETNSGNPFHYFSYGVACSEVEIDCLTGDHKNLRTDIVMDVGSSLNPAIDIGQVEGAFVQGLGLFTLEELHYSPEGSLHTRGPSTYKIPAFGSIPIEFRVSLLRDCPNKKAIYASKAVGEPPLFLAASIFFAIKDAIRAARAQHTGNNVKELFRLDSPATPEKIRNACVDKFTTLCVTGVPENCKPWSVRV
Sequence of Prostaglandin G/H synthase 1 (Homo sapiens) (P23219 whole entry): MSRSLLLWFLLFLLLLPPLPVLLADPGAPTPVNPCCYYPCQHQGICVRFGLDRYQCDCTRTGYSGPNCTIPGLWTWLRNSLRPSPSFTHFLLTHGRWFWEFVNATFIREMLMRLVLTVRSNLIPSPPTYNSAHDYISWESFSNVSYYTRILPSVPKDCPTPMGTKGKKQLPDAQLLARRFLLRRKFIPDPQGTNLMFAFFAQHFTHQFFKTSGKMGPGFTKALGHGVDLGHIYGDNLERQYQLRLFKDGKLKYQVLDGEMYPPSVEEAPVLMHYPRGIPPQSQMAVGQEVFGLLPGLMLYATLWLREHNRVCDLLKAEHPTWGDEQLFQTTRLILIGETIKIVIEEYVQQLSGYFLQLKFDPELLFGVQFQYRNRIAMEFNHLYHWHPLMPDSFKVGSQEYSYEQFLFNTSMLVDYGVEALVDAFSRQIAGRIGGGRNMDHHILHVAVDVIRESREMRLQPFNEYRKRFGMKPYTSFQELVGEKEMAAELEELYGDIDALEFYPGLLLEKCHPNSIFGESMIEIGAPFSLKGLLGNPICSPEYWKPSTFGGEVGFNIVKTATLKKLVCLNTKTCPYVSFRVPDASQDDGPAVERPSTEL

Compound: CC1(C)/C=C\N2C(=O)[C@]3(O)[C@H](O)CCN3C(=O)[C@@H]2Cc2c1[nH]c1ccccc21
- Activity (N2a): 36.5%

Compound: COc1cc2c(cc1OC)-c1ccccc1CCN(C)C2
- Kb [1]: 0.107 µM
- Kb [2]: 0.102 µM

Compound: COC(=O)C1=C2Nc3c(OC)cccc3[C@]23CC[N+]2(C)C[C@H](C(C)=O)[C@H]1C[C@H]32 (stereo partly specified)
- IC50 (SAOS-2): 9.2 µM
- IC50 (MG-63): 9.2 µM
- IC50 (U2OS): 9.2 µM
- IC50 [3]: 9.2 µM

Compound: CN1CCc2ccccc2-c2cc(O)c(O)cc2C1
- Kb [1]: 0.02 µM
- Kb [2]: 3.02 µM

Compound: C/C=C1\CN2CC[C@@H]1[C@](CO)(C(=O)OC)c1[nH]c3ccccc3c1C2
- inhibition [4]: 49.4%
- inhibition [5]: 63.7%
- inhibition [6]: 60.8%
- IC50 [7]: 24.5 µM
- IC50 [8]: 32.6 µM
- IC50 [9]: > 100 µM

Compound: COC(=O)[C@@]12COC[C@@H](O)[C@@]3(CO)[C@@H]1CCN3Cc1c2[nH]c2ccccc12
- IC50 (KB): 7.76 µg/mL (≈ 20.8 µM)
- IC50 [10]: 7.33 µg/mL (≈ 19.7 µM)

Compound: C=C1C=C[C@@]23CC[C@@]45C(C2)[C@]4(CCN13)c1cc(OC)ccc1N5C(=O)OC
- IC50 (B16): 2.8 µg/mL (≈ 7.68 µM)
- IC50 [11]: 4.6 µg/mL (≈ 12.6 µM)

Compound: O=CC1=C[C@@]2(O)CC/C=C\CCCCN3CC[C@@H]1[C@]1(C[C@@H]4/C=C\CCCCN4[C@H]12)C3 [IRCINAL]
- IC50 (KB): 4.8 µg/mL (≈ 11.7 µM)
- IC50 (L1210): 1.4 µg/mL (≈ 3.41 µM)

Compound: O=C1C[C@@H]2OCC=C3CN4CC[C@]56c7ccccc7N1[C@H]5[C@H]2[C@H]3C[C@H]46 [STRYCHNINE]
- LD50 [12]: 0.96 mg/kg

Compound: CC[C@@H]1C2CCN(C)C1c1c([nH]c3ccc(OC)cc13)C2=O (stereo partly specified)
- IC50 (Plasmodium falciparum [13]): 16.7 µM
- IC50 (NIH3T3): > 50 µg/mL

Compound: COC(=O)[C@]12COCC[C@@H]3[C@H](c4c1[nH]c1ccccc41)N(C)CC[C@@H]32 [UNDULIFOLINE]
- IC50 (Cholinesterase): 28.5 µM

Compound: O=C1NCCc2c[nH]c3ccc4c(c23)[C@H]1[C@@H](c1ccc2c(c1)OCO2)O4
- deltaG [14]: -9.1 kcal/mol
- IC50 (Plasmodium falciparum [15]): 4.41 µg/mL (≈ 12.7 µM)
- IC50 (Plasmodium falciparum [16]): 3.93 µg/mL (≈ 11.3 µM)

Compound: CC1(C)/C=C\N2C(=O)C3(O)C(O)CCN3C(=O)[C@@H]2Cc2c1[nH]c1ccccc21 (stereo partly specified)
- Activity (N2a): 38.6%

Compound: COc1cc([C@H]2Oc3ccc4[nH]cc5c4c3[C@H]2C(=O)NCC5=O)ccc1O
- mortality at 24 h, 10 ug/ml [17]: 90%

Compound: COc1cc([C@H]2Oc3ccc4[nH]cc5c4c3[C@@H]2C(=O)NCC5)ccc1OC(=O)C(C)(C)C
- IC50 (Plasmodium falciparum [18]): 123 µM
